What was measured:
[1] = system: A-549; experiment: cells; conditions: Homo sapiens, A549, 48 h; for GI50: read-out: A549 GI50; for CC50: read-out: A549 LC50; for IC (TGI): read-out: A549 TGI
Outline: (§1)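 Colorimetric SRB read (490 nm) on triplicate wells after 48 h at 37 °C, 5% CO2. Dose range 10 to 10^−8 μg/ml; 5×10^3 cells/well pre-attached 18 h.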

[2] = system: LoVo; experiment: cells; conditions: Homo sapiens, LoVo, 48 h; for GI50: read-out: LOVO GI50; for CC50: read-out: LOVO LC50; for IC (TGI): read-out: LOVO TGI
Outline: as §1

[3] = system: HT-29; experiment: cells; conditions: Homo sapiens, HT-29, 48 h; for GI50: read-out: HT29 GI50; for CC50: read-out: HT29 LC50; for IC (TGI): read-out: HT29 TGI
Outline: as §1

[4] = system: LNCaP; experiment: Inhibition of cells growth by colorimetric assay (SRB); conditions: Homo sapiens, LNCaP, 48 h; for GI50: read-out: LNCAP GI50; for CC50: read-out: LNCAP LC50; for IC (TGI): read-out: LNCAP TGI
Outline: as §1

[5] = system: SK-BR-3; experiment: as above; conditions: Homo sapiens, SK-BR-3, 48 h; for GI50: read-out: SK-BR3 GI50; for CC50: read-out: SK-BR3 LC50; for IC (TGI): read-out: SK-BR3 TGI
Outline: as §1

[6] = system: HeLa-APL; experiment: as above; conditions: Homo sapiens, 48 h; for GI50: read-out: HELA-APL GI50; for CC50: read-out: HELA-APL LC50; for IC (TGI): read-out: HELA-APL TGI
Outline: as §1

[7] = system: DU-145; experiment: as above; conditions: Homo sapiens, DU-145, 48 h; for GI50: read-out: DU145 GI50; for CC50: read-out: DU145 LC50; for IC (TGI): read-out: DU145 TGI
Outline: as §1

[8] = system: SK-MEL-28; experiment: as above; conditions: Homo sapiens, SK-MEL-28, 48 h; for GI50: read-out: MEL-28 GI50; for CC50: read-out: MEL-28 LC50; for IC (TGI): read-out: MEL-28 TGI
Outline: as §1

[9] = system: PANC-1; experiment: as above; conditions: Homo sapiens, PANC-1, 48 h; for GI50: read-out: PANC-1 GI50; for CC50: read-out: PANC-1 LC50; for IC (TGI): read-out: PANC-1 TGI
Outline: as §1

[10] = system: HeLa; experiment: as above; conditions: Homo sapiens, HeLa, 48 h; for GI50: read-out: HELA GI50; for CC50: read-out: HELA LC50; for IC (TGI): read-out: HELA TGI
Outline: as §1

[11] = system: LoVo-Dox; experiment: as above; conditions: Homo sapiens, 48 h; for GI50: read-out: LOVO-DOX GI50; for CC50: read-out: LOVO-DOX LC50; for IC (TGI): read-out: LOVO-DOX TGI
Outline: as §1

[12] = system: IGROV-ET; experiment: as above; conditions: Homo sapiens, 48 h; for GI50: read-out: IGROV-ET GI50; for CC50: read-out: IGROV-ET LC50; for IC (TGI): read-out: IGROV-ET TGI
Outline: as §1

[13] = system: IGROV-1; experiment: as above; conditions: Homo sapiens, IGROV-1, 48 h; for GI50: read-out: IGROV GI50; for CC50: read-out: IGROV LC50; for IC (TGI): read-out: IGROV TGI
Outline: as §1

[14] = system: K-562; experiment: as above; conditions: Homo sapiens, K562, 48 h; for GI50: read-out: K562 GI50; for CC50: read-out: K562 LC50; for IC (TGI): read-out: K562 TGI
Outline: as §1

COc1c(C)cc2c(c1O)[C@H]1N[C@@H](C2)[C@H](O)N2C1[C@@H]1SC[C@]3(NCCc4c3[nH]c3ccccc43)C(=O)OC[C@H]2c2c3c(c(C)c(OC(C)=O)c21)OCO3 (stereo partly drawn) [compound 63]
GI50 [1]: 0.024 µM
CC50 [1]: 0.273 µM
IC (TGI) [1]: 0.0614 µM
GI50 [2]: 0.00863 µM
CC50 [2]: 13.5 µM
IC (TGI) [2]: 0.0548 µM
GI50 [3]: 0.00917 µM
CC50 [3]: 13.5 µM
IC (TGI) [3]: 0.327 µM
GI50 [4]: 0.00286 µM
CC50 [4]: 0.01 µM
IC (TGI) [4]: 0.00536 µM
GI50 [5]: 0.00393 µM
CC50 [5]: 0.198 µM
IC (TGI) [5]: 0.00898 µM
GI50 [6]: 0.011 µM
CC50 [6]: 0.15 µM
IC (TGI) [6]: 0.0398 µM
GI50 [7]: 0.00348 µM
CC50 [7]: 4.4 µM
IC (TGI) [7]: 0.00724 µM
GI50 [8]: 0.00564 µM
CC50 [8]: 0.0526 µM
IC (TGI) [8]: 0.017 µM
GI50 [9]: 0.0046 µM
CC50 [9]: 4.27 µM
IC (TGI) [9]: 0.0174 µM
GI50 [10]: 0.00316 µM
CC50 [10]: 0.0125 µM
IC (TGI) [10]: 0.00629 µM
GI50 [11]: 0.398 µM
CC50 [11]: 13.5 µM
IC (TGI) [11]: 1.09 µM
GI50 [12]: 0.0759 µM
CC50 [12]: 13.3 µM
IC (TGI) [12]: 0.537 µM
GI50 [13]: 0.0054 µM
CC50 [13]: 0.00449 µM
IC (TGI) [13]: 0.015 µM
GI50 [14]: 0.00386 µM
CC50 [14]: 0.634 µM
IC (TGI) [14]: 0.00792 µM

COc1ccc2[nH]c3c(c2c1)CCN[C@]31CS[C@@H]2c3c(OC(C)=O)c(C)c4c(c3[C@H](COC1=O)N1C2[C@@H]2N[C@@H](Cc3cc(C)c(OC)c(O)c32)[C@@H]1O)OCO4 (stereo partly drawn) [compound 64]
GI50 [1]: 0.00519 µM
CC50 [1]: 1.12 µM
IC (TGI) [1]: 0.0366 µM
GI50 [2]: 0.00415 µM
CC50 [2]: 12.5 µM
IC (TGI) [2]: 0.0103 µM
GI50 [3]: 0.00358 µM
CC50 [3]: 13 µM
IC (TGI) [3]: 0.0132 µM
GI50 [4]: 0.00102 µM
CC50 [4]: 0.00612 µM
IC (TGI) [4]: 0.00267 µM
GI50 [5]: 0.000717 µM
CC50 [5]: 13 µM
IC (TGI) [5]: 0.15 µM
GI50 [6]: 0.00239 µM
CC50 [6]: 0.00963 µM
IC (TGI) [6]: 0.0048 µM
GI50 [7]: 0.00289 µM
CC50 [7]: 13 µM
IC (TGI) [7]: 0.153 µM
GI50 [8]: 0.00265 µM
CC50 [8]: 0.0205 µM
IC (TGI) [8]: 0.00624 µM
GI50 [9]: 0.00246 µM
CC50 [9]: 13 µM
IC (TGI) [9]: 0.0109 µM
GI50 [10]: 0.0024 µM
CC50 [10]: 0.01 µM
IC (TGI) [10]: 0.00489 µM
GI50 [11]: 0.32 µM
CC50 [11]: 13 µM
IC (TGI) [11]: 2.76 µM
GI50 [12]: 0.0348 µM
CC50 [12]: 8.3 µM
IC (TGI) [12]: 0.171 µM
GI50 [13]: 0.00178 µM
CC50 [13]: 0.0109 µM
IC (TGI) [13]: 0.00441 µM
GI50 [14]: 0.00086 µM
CC50 [14]: 0.812 µM
IC (TGI) [14]: 0.00471 µM
